{"source": "patent US20190216786A1", "about": "“USE OF 2-{4-[(4-{[1-CYCLOPROPYL-3-TETRAHYDRO-2H-PYRAN-4-yl)-1H-PYRAZOL-4yl]OXY} PYRIDINE-2-yl)AMINO]PYRIDIN-2-yl}PROPAN-2-OL IN THE TREATMENT OF CANCER” (Eli Lilly and Company, priority 2016, published 2019)", "key": {"[1]": {"experiment": "3-month intermittent-dosing toxicology study in rats", "format": "in vivo", "source_text": "(§1) Due to the cardiac effects observed with daily dosing in preclinical models, intermittent-dosing toxicology studies administering 2-{4-[(4-{[1-cyclopropyl-3-(tetrahydro-2H-pyran-4-yl)-1H-pyrazol-4-yl]oxy}pyridin-2-yl)amino]pyridin-2-yl}propan-2-ol 4-methylbenzenesulfonate for 3 months in dogs and rats were completed to support clinical dosing. The two dosing schedules evaluated were 2 weeks of daily dosing followed by 2 weeks of no dosing (2 weeks on/2 weeks off) or 3 weeks of daily dosing followed by 1 week of no-dosing (3 weeks on/1 week off). […] Margins of safety based on the NOAELs for the 3-month studies support the proposed clinical dose range of 10 to 100 mg in patients."}, "in vivo": {"experiment": "in vivo", "set-up": "species or system dogs", "settings": "dog", "source_text": "as §1"}}}
{"compound": "CC(C)(O)c1cc(Nc2cc(Oc3cn(C4CC4)nc3C3CCOCC3)ccn2)ccn1", "note": "[2-{4-[(4-{[1-cyclopropyl-3-(tetrahydro-2H-pyran-4-yl)-1H-pyrazol-4-yl]oxy}pyridin-2-yl)amino]pyridin-2-yl}propan-2-ol 4-methylbenzenesulfonate]", "values": [{"measurement": "cardiac effects", "setting": "[1]; rat, 12 mg/kg, 3 cycles of the 3-week-on/1-week-off schedule", "result": "limited to aortic inflammation and degeneration in a single female animal"}, {"measurement": "compound-related, adverse effects", "setting": "[1]; rats, 3 months, 2-week on/2-week-off dosing schedule", "result": "no compound-related, adverse effects detected"}, {"measurement": "NOAEL at 3 months", "setting": "in vivo", "result": 7.5, "unit": "mg/kg"}, {"measurement": "adverse effects", "setting": "in vivo", "result": "no adverse effects"}]}
